Test [1] concerns the target T1, ATX (Homo sapiens, UniProt Q13822). In words: ATX inhibition assay with FS-3 substrate. Particulars: for % Response at 10 μM (FS-3): 10 μM compound, FS-3 hydrolysis normalized to vehicle control (low = strong inhibition), mean ± S.D.; for single dose response comparison by aromatic substituent and position: Table 2, same values as % Response at 10 μM; for inhibition at 10 µM: single dose 10 μM, % inhibition, read-out: inhibition of ATX-mediated hydrolysis of FS-3. Further details: conditioned serum-free medium (CCM) from MDA-MB-435 cells as the source of ATX; endogenous in cells; host or cells: MDA-MB-435 cells (about 10x concentrated serum-free conditioned medium). It is filed as biochemical.

For test [2], the target named is T2, human NPP6 (Homo sapiens, UniProt Q6UWR7).
T2 construct: transfected with human NPP6ex^51 or human NPP7ex expression plasmids; made in house; host or cells: HEK293 cells, transient transfection, pcDNA3.1(+); unconcentrated conditioned medium (CM)
T2 sequence (Q6UWR7 23-419 limits assumed): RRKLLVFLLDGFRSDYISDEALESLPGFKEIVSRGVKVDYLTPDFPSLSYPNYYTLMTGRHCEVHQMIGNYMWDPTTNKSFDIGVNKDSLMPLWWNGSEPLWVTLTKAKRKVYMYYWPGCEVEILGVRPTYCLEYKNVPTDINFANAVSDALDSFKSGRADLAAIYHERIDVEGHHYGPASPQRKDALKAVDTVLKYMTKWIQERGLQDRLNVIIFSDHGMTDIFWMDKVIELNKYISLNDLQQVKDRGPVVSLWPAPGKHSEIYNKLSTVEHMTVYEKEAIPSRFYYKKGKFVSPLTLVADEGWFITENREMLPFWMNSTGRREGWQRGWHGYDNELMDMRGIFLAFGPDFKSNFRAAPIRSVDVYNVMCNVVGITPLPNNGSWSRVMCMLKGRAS
Description: Determination of NPP6 inhibition (pNPPC substrate). It is filed as biochemical. Particulars: 10 μM inhibitor. The protocol:
(§1) Inhibitor selectivity was assayed using p-nitrophenylphosphoryl-choline (pNPPC) (Sigma-Aldrich, St. Louis, Mo.) as substrate for NPP6 and NPP7. The final volume (60 μL) included 20 μL (CM, NPP6 or CCM, NPP7, 20 μL inhibitor (10 μM including 1% DMSO) in assay buffer, and 20 μL pNPPC (10 mM, NPP6 or 1 NPP7) in assay buffer. NPP6 assay buffer contained 500 mM NaCl, 0.05% Triton X-100, 100 mM Tris-HCl (pH 9.0), whereas NPP7 assay buffer was comprised of 50 mM Tris HCl, pH 8.5, 150 mM NaCl, and 10 mM taurocholic acid. However, unlike the published methods, EDTA was not added to the NPP7 assay buffer. All assays were performed in 96-well, half area plates (Corning Inc., Lowell, Mass.) at 37° C. with data collected at 2 minute intervals using a Synergy2 absorbance plate reader (BioTek, Winooski, Vt.). Results are shown at the one hour time point, when all absorbance changes as a function of time were linear. Readings were normalized to vehicle control after subtraction of absorbance in the absence of CM or CCM. Data are shown as the mean±S.D. of at least three wells. All experiments were repeated twice and representative results are shown.
(§2) Assays were performed with CM or CCM from HEK293 cells transiently transfected with NPP6 and 7 expression plasmids, respectively. HEK293 cells were seeded in Dulbecco's modified Eagle's medium (DMEM) containing 10% fetal bovine serum, 100 U/ml penicillin, 100 μg/ml streptomycin (Hyclone, Logan, Utah), and 2 mM L-glutamine. HEK293 cells were grown overnight at 37° C. under 5% CO2 to 80% confluence. The cells were then transfected with human NPP6ex^51 or human NPP7ex expression plasmids in the pcDNA3.1(+) mammalian vector in the presence of Polyfect Transfection Reagent (Hyclone, Logan, Utah). Six hours after transfection, the culture medium was changed to serum free DMEM containing L-glutamine and cells were incubated for 48 hours. Expressed protein was collected (NPP6 and NPP7) and concentrated ˜10×(NPP7) using 10 kDa molecular weight cutoff filters (Millipore, Beverly, Mass.) in an Amicon pressure cell (Millipore, Beverly, Mass.).

Test [3] concerns the target T3, human NPP7 (Homo sapiens, UniProt Q6UWV6).
T3 construct: transfected with human NPP6ex^51 or human NPP7ex expression plasmids; made in house; host or cells: HEK293 cells, transient transfection, pcDNA3.1(+); conditioned medium concentrated about 10x (CCM)
T3 sequence (Q6UWV6 22-433 limits assumed): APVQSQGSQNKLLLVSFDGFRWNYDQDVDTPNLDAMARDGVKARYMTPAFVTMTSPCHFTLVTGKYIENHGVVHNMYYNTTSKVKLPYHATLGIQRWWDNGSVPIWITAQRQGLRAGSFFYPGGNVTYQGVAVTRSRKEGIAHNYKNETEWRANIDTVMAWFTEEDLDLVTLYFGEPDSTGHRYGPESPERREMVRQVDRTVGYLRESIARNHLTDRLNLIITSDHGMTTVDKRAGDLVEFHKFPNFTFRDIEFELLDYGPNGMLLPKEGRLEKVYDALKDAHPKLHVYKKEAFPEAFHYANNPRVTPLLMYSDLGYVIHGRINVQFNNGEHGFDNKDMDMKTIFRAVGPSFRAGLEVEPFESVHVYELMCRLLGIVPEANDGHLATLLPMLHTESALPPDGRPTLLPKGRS
Description: Determination of NPP7 inhibition (pNPPC substrate). Particulars: 10 μM inhibitor. Type of test: biochemical. How it is done:
as §1, §2

Test [4] concerns the target T1, ATX. Particulars: for Inhibition Mechanism: FS-3 substrate.
Test [5] has as its target T1, ATX. In words: biochemical.
Where [6] appears, read: Ki (nM), competitive inhibitors.
[7] abbreviates: Ki (μM), FS-3 substrate, for mixed mode Ki=IC50 assumed.

What is called inhibition is the change of the read-out against control, counted positive when it falls. The term Ki denotes the equilibrium dissociation constant of an inhibitor or competing ligand from its target. A word on the IC50: it is the concentration needed to halve the response being measured. A high value points to a need for much substance.

Consider `CCn1cc(C(=O)O)c(=O)c2cnc(N3CCN(C(=S)Nc4ccc(I)cc4)CC3)nc21` [Compound 3, 2-(4-{[(4-iodophenyl)amino]carbonothioyl}-1-piperazinyl)-8-ethyl-5-oxo-5,8-dihydropyrido[2,3-d]pyrimidine-6-carboxylic acid], for which, in test [1], the “% Response at 10 μM (FS-3)” value is listed as 32.7 ± 1.3%; the “single dose response comparison by aromatic substituent and position” value (shortened to “single dose response comparison”) is on record as 32.7 ± 1.3; the inhibition at 10 µM is at least 50%. Also, the “effect on activity of NPP6” value in test [2] is reported as “None of the compounds affected the activity”. Further, the “effect on activity of NPP7” value in test [3] was “None of the compounds affected the activity”. Besides, in test [4], the “mechanism of ATX inhibition” value was “mixed-mode” and the “Inhibition Mechanism” value was “Mixed”.
As to `CCn1cc(C(=O)O)c(=O)c2cnc(N3CCN(C(=S)Nc4ccc5nsnc5c4)CC3)nc21` [Compound 7, 2-(4-{[(3-benzothiadiazolphenyl)amino]carbonothioyl}-1-piperazinyl)-8-ethyl-5-oxo-5,8-dihydropyrido[2,3-d]pyrimidine-6-carboxylic acid], in test [5] (setting [6]), the Ki was in the range of 30 to 430 nM. In test [5] (setting [7]), this molecule showed a Ki of 430 nM. In test [1], the “% Response at 10 μM (FS-3)” value is 28.6 ± 2.0% and the inhibition at 10 µM is at least 50%. Moreover, the IC50 in test [1] (FS-3 substrate) was determined as 12.1 ± 2.4 µM. Besides, half-maximal inhibition in test [1] (Substrate FS-3 (1 μM)) (IC50) required 12.1 µM. Further, in test [2], the “effect on activity of NPP6” value is listed as “None of the compounds affected the activity”. In test [3], the “effect on activity of NPP7” value is “None of the compounds affected the activity”. Besides, in test [4], the “mechanism of ATX inhibition” value is recorded as “competitive”, the “potency relative to the lead compound” value was “at least as potent as the lead compound” and the “Inhibition Mechanism” value was “Competitive”.
`CCn1cc(C(=O)O)c(=O)c2cnc(N3CCN(C(=S)Nc4cccc(C(F)(F)F)c4)CC3)nc21` [Compound 11, 2-(4-{[(3-trifluoromethylphenyl)amino]carbonothioyl}-1-piperazinyl)-8-ethyl-5-oxo-5,8-dihydropyrido[2,3-d]pyrimidine-6-carboxylic acid]: the inhibition constant (Ki) in test [5] (Ki) turned out to be 30 nM. The same molecule had a Ki in test [5] (setting [6]) of 30 to 430 nM. For the same molecule, in test [1], the “% Response at 10 μM (FS-3)” value is 0.3 ± 0.6%; the “single dose response comparison” value was 0.3 ± 0.6. The same molecule gave an IC50 in test [1] (FS-3 substrate) of 0.9 ± 0.3 µM. In addition, the 50% inhibitory concentration (IC50) in test [1] (Substrate FS-3 (1 μM)) turned out to be 0.9 ± 0.3 µM. The “effect on activity of NPP6” value in test [2] is recorded as “None of the compounds affected the activity”. Further, the “effect on activity of NPP7” value in test [3] was “None of the compounds affected the activity”. In addition, in test [4], the “mechanism of ATX inhibition” value was “competitive”, the “potency relative to the lead compound” value was “at least as potent as the lead compound” and the “Inhibition Mechanism” value is listed as “Competitive”.
Consider `CCn1cc(C(=O)O)c(=O)c2cnc(N3CCN(C(=S)Nc4cccc(C)c4)CC3)nc21` [Compound 13, 2-(4-{[(3-methylphenyl)amino]carbonothioyl}-1-piperazinyl)-8-ethyl-5-oxo-5,8-dihydropyrido[2,3-d]pyrimidine-6-carboxylic acid], for which the Ki in test [5] (Ki) fell in the range of 1700 to 13500 nM. The molecule further came in with a Ki in test [5] (setting [7]) of 13500 nM. In addition, in test [1], the “% Response at 10 μM (FS-3)” value came to 41.9 ± 0.8% and the inhibition at 10 µM was at least 50%. Besides, in test [1] (FS-3 substrate), the concentration for half-maximal inhibition (IC50) was found to be 13.5 ± 1.3 µM. For the same molecule, the “effect on activity of NPP6” value in test [2] is on record as “None of the compounds affected the activity”. The “effect on activity of NPP7” value in test [3] is given as “None of the compounds affected the activity”. In addition, in test [4], the “mechanism of ATX inhibition” value is on record as “mixed-mode”, the “potency relative to the lead compound” value was “as potent as or significantly less potent than the lead” and the “Inhibition Mechanism” value is given as “Mixed”.
On to `CCn1cc(C(=O)O)c(=O)c2cnc(N3CCN(C(=S)Nc4ccc(F)cc4)CC3)nc21` [Compound 23, 2-(4-{[(4-fluorophenyl)amino]carbonothioyl}-1-piperazinyl)-8-ethyl-5-oxo-5,8-dihydropyrido[2,3-d]pyrimidine-6-carboxylic acid], for which, in test [1], the “% Response at 10 μM (FS-3)” value came to 48.9 ± 1.1%; the “single dose response comparison” value came out at 48.9 ± 1.1; the inhibition at 10 µM is at least 50%. In test [1] (FS-3 substrate), this molecule displayed an IC50 of 17.7 µM. Also, the “effect on activity of NPP6” value in test [2] was “None of the compounds affected the activity”. Besides, in test [3], the “effect on activity of NPP7” value was “None of the compounds affected the activity”.
As for `CCn1cc(C(=O)O)c(=O)c2cnc(N3CCN(C(=S)Nc4cccc(F)c4)CC3)nc21` [Compound 25, 2-(4-{[(3-fluorophenyl)amino]carbonothioyl}-1-piperazinyl)-8-ethyl-5-oxo-5,8-dihydropyrido[2,3-d]pyrimidine-6-carboxylic acid], in test [1], the “% Response at 10 μM (FS-3)” value is 40.5 ± 1.0%; the “single dose response comparison” value is listed as 40.5 ± 1.0; the inhibition at 10 µM is at least 50%. Besides, in test [1] (FS-3 substrate), half-maximal inhibition (IC50) required 16.1 ± 4.5 µM. The “effect on activity of NPP6” value in test [2] was “None of the compounds affected the activity”. For the same molecule, the “effect on activity of NPP7” value in test [3] is “None of the compounds affected the activity”.
As for `CCn1cc(C(=O)O)c(=O)c2cnc(N3CCN(C(=S)Nc4ccc(C)cc4)CC3)nc21` [Compound 27, 2-(4-{[(4-methylphenyl)amino]carbonothioyl}-1-piperazinyl)-8-ethyl-5-oxo-5,8-dihydropyrido[2,3-d]pyrimidine-6-carboxylic acid], in test [1], the “% Response at 10 μM (FS-3)” value is listed as 49.9 ± 1.5% and the inhibition at 10 µM is at least 50%. The IC50 in test [1] (FS-3 substrate) came to 16.1 ± 4 µM. Besides, the “effect on activity of NPP6” value in test [2] was “None of the compounds affected the activity”. Besides, the “effect on activity of NPP7” value in test [3] is given as “None of the compounds affected the activity”.
Turning to `CCn1cc(C(=O)O)c(=O)c2cnc(N3CCN(C(=S)Nc4cccc(I)c4)CC3)nc21` [Compound 29, 2-(4-{[(3-iodophenyl)amino]carbonothioyl}-1-piperazinyl)-8-ethyl-5-oxo-5,8-dihydropyrido[2,3-d]pyrimidine-6-carboxylic acid], in test [1], the “% Response at 10 μM (FS-3)” value worked out at 8.6 ± 0.9%; the “single dose response comparison” value was 8.6 ± 0.9; the inhibition at 10 µM was at least 50%. Besides, the “effect on activity of NPP6” value in test [2] is given as “None of the compounds affected the activity”. Besides, the “effect on activity of NPP7” value in test [3] is “None of the compounds affected the activity”. Further, in test [4], the “mechanism of ATX inhibition” value is “uncompetitive” and the “Inhibition Mechanism” value is listed as “Uncompetitive”.

These data come from patent publication US8497371B2, “Pipemidic acid derivative autotaxin inhibitors” (University of Memphis Research Foundation, priority 2009, dated 2013).
